In patent US9023398B2, “Method for improving the aqueous solubility of poorly-soluble substances” (Kabushiki Kaisha Sangi, priority 2009, dated 2015):

Key:
[1] = Dissolution test of poorly-soluble substances using 2nd fluid for disintegration test (pH 6.8) of the Japanese Pharmacopoeia; assay type: physicochemical
Description: From initiation of the test, the mixed solution was stirred with a stirrer having a length of 15 mm. The rotation number of the stirrer was 120 rpm, and all of the tests were conducted in a thermostat at 37±0.5° C. Two types of test solutions, namely, distilled water and 2nd fluid for disintegration test (pH 6.8) of the Japanese Pharmacopoeia were used. As such 2nd fluid for disintegration test of the Japanese Pharmacopoeia, a solution prepared by diluting the 10-fold concentration solution of Kanto Kagaku Co., Ltd. with distilled water was used.

[2] = Experimental: The rotation number of the stirrer was 120 rpm, and all of the tests were conducted in a thermostat at 37±0.5° C. Two types of test solutions, namely, distilled water and 2nd fluid for disintegration test (pH 6.8) of the Japanese Pharmacopoeia were used. As such 2nd fluid for disintegration test of the Japanese Pharmacopoeia, a solution prepared by diluting the 10-fold concentration solution of Kanto Kagaku Co., Ltd. with distilled water was used.
A comparative test was carried out in the same manner as that described above with the exception that a poorly-soluble substance or the like was used in an amount equal to that of a substance with improved aqueous solubility, instead of the substance with improved aqueous solubility.
1 mL of the solution was sampled in an Eppendorf centrifuge tube, 1, 3, 10, 30, 60, 180 and 360 minutes after initiation of the test. The thus sampled solution was centrifuged at 12,000 rpm for 5 minutes. […] In the case of the comparative test, the poorly-soluble substance or the like, which had not been dissolved in the solution, was removed. An aliquot of this supernatant was immediately frozen. The frozen sample was freeze-dried, and it was then used as a sample in the measurement of the amount of the substance with improved aqueous solubility, which had been dissolved in the test solution. The dissolved poorly-soluble substance was measured mainly using a dual wavelength absorption photometer.
Moreover, a comparative test was carried out using silica fume instead of the calcium compound microparticles. Specifically, a coating treatment was carried out according to the same method as that described in the above section “6-1.

[3] = Dissolution test of poorly-soluble substances using distilled water; assay type: physicochemical

| SMILES | Dissolved amount ([1]; 2nd fluid for disintegration test, elution time 1 min) [µg/mL] | Dissolved amount ([1]; 2nd fluid for disintegration test, elution time 3 min) [µg/mL] | Dissolved amount ([1]; 2nd fluid for disintegration test, elution time 10 min) [µg/mL] | Dissolved amount ([1]; 2nd fluid for disintegration test, elution time 30 min) [µg/mL] | Dissolved amount ([1]; 2nd fluid for disintegration test, elution time 60 min) [µg/mL] | Dissolved amount ([1]; 2nd fluid for disintegration test, elution time 180 min) [µg/mL] | Dissolved amount ([1]; 2nd fluid for disintegration test, elution time 360 min) [µg/mL] | Dissolved amount ([1]; Second disintegration test medium, trichlorocarbanilide, elution time not printed in Table 13) [µg/mL] | solubility-improving effect [2] | Dissolved amount ([3]; Dissolution test using water, elution time 1 min) [µg/mL] | Dissolved amount ([3]; Dissolution test using water, elution time 3 min) [µg/mL] | Dissolved amount ([3]; Dissolution test using water, elution time 10 min) [µg/mL] | Dissolved amount ([3]; Dissolution test using water, elution time 30 min) [µg/mL] | Dissolved amount ([3]; Dissolution test using water, elution time 60 min) [µg/mL] | Dissolved amount ([3]; Dissolution test using water, elution time 180 min) [µg/mL] | Dissolved amount ([3]; Dissolution test using water, elution time 360 min) [µg/mL] | Dissolved amount ([3]; Distilled water, trichlorocarbanilide, elution time not printed in Table 13) [µg/mL] |
| --- | --- | --- | --- | --- | --- | --- | --- | --- | --- | --- | --- | --- | --- | --- | --- | --- | --- |
| O=C(Nc1ccc(Cl)cc1)Nc1ccc(Cl)c(Cl)c1 [10-1, Trichlorocarbanilide] | 0.0 | 0.3 | 0.6 | 0.8 | 1.1 | 1.3 | 1.5 | 1.5 | a solubility-improving effect was obtained | 0.0 | 0.1 | 0.4 | 0.4 | 0.4 | 0.5 | 0.6 | 0.6 |
| CC(=O)O[C@@]12CO[C@@H]1C[C@H](O)[C@@]1(C)C(=O)[C@H](O)C3=C(C)[C@@H](OC(=O)[C@H](O)[C@@H](NC(=O)OC(C)(C)C)c4ccccc4)C[C@@](O)([C@@H](OC(=O)c4ccccc4)[C@H]21)C3(C)C [docetaxel hydrate] | – | – | – | – | – | – | – | – | a solubility-improving effect was obtained | – | – | – | – | – | – | – | – |
